Data from patent publication US8455665B2, “3-phenoxymethylpyrrolidine compounds” (Theravance, Inc., priority 2009, dated 2013).

Experiments:
SERT [1] = target: T1, SERT (Homo sapiens, UniProt P31645); experiment: hSERT neurotransmitter uptake assay (3H-5-HT); assay type: cell-based; parameters: expressed in transfected cells; host or cells: HEK-293; details: serotonin reuptake inhibition, HEK-293 hSERT cells, 3H-5-HT (no asterisk); for IC50: read-out: SERT pIC50 (converted)
Experimental: (§1) Neurotransmitter uptake assays were used to measure inhibition of ^3H-serotonin (^3H-5-HT), ^3H-norepinephrine (^3H-NE), and ^3H-dopamine (^3H-DA) uptake into cells expressing the respective transporter (hSERT, hNET or hDAT) in order to determine the pIC50 values of test compounds at the transporters.
(§2) HEK-293 derived cell lines stably-transfected with hSERT, hNET, or hDAT, respectively, were grown in DMEM medium supplemented with 10% dialyzed FBS (for hSERT) or FBS (for hNET and hDAT), 100 μg/ml penicillin, 100 μg/ml streptomycin, 2 mM L-glutamine and 250 μg/ml of the aminoglycoside antibiotic G418 (for hSERT and hNET) or 800 ug/ml (for hDAT), in a 5% CO2 humidified incubator at 37° C. When cultures reached 80% confluence, the cells were washed thoroughly in PBS (without Ca^2+ and Mg^2+) and lifted with 5 mM EDTA in PBS. Cells were harvested by centrifugation at 1100 rpm for 5 minutes, washed once by resuspension in PBS, then centrifuged. The supernatant was discarded and the cell pellet resuspended, by gentle trituration, in room temperature Krebs-Ringer bicarbonate buffer containing HEPES (10 mM), CaCl2 (2.2 mM), ascorbic acid (200 μM) and pargyline (200 μM), pH 7.4. The final concentration of cells in the cell suspension was 7.5×10^4 cells/ml, 1.25×10^5 cells/ml, and 5.0×10^4 cells/ml for SERT, NET, and DAT cell lines, respectively.
(§3) Neurotransmitter uptake assays were performed in a 96-well assay plate in a total volume of 400 μl assay buffer (Krebs-Ringer bicarbonate buffer containing HEPES (10 mM), CaCl2 (2.2 mM), ascorbic acid (200 μM) and pargyline (200 μM), pH 7.4) with 1.5×10^4 and 2.5×10^4 cells, for SERT, NET, and DAT, respectively. […] Stock solutions (10 mM in DMSO) of test compound were prepared and serial dilutions prepared using 50 mM Tris-HCl, 120 mM NaCl, 5 mM KCl, pH 7.4, 0.1% BSA, 400 μM ascorbic acid. Test compounds were incubated for 30 minutes at 37° C. with the respective cells, prior to addition of radiolabeled neurotransmitter, ^3H-5-HT (20 nM final concentration), ^3H-NE (50 nM final concentration) or ^3H-DA (100 nM final concentration). Non-specific neurotransmitter uptake was determined in the presence of 2.5 μM duloxetine, 2.5 μM desipramine, or 10 uM GBR-12909 (each in Dilution Buffer) for the hSERT, hNET, or hDAT assays, respectively.
(§4) Following a 10 minute incubation, at 37° C., with radioligand, the cells were harvested by rapid filtration over a 96-well UniFilter GF/B plate, pretreated with 1% BSA, and washed 6 times with 650 μl wash buffer (ice cold PBS). Plates were dried overnight at 37° C., ˜45 μl of MicroScint™-20 (Perkin Elmer) added and incorporated radioactivity quantitated via liquid scintillation spectroscopy Inhibition curves were analyzed using GraphPad Prism Software package (GraphPad Software, Inc., San Diego, Calif.). IC50 values were generated from concentration response curves using the Sigmoidal Dose Response (variable slope) algorithm in Prism GraphPad.
Target sequence in this assay (P31645 whole entry): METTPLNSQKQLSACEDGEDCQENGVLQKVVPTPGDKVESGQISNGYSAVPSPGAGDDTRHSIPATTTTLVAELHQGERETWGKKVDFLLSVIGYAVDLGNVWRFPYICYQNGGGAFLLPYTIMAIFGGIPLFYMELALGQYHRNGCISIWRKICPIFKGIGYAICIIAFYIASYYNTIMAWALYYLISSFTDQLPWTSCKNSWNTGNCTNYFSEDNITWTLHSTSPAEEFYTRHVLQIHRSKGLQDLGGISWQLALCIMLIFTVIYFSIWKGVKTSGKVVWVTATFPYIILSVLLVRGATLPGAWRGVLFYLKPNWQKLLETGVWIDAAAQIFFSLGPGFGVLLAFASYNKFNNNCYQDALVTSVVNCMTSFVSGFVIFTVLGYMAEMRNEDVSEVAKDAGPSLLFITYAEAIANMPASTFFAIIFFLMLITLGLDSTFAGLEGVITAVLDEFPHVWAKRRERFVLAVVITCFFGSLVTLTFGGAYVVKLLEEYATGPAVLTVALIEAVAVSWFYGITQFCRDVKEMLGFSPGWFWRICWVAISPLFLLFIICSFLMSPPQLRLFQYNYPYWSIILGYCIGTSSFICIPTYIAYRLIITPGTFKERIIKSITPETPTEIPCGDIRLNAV

NET [2] = target: T2, NET (Homo sapiens, UniProt P23975); experiment: hNET neurotransmitter uptake assay (3H-NE); assay type: cell-based; parameters: expressed in transfected cells; host or cells: HEK-293; details: norepinephrine reuptake inhibition, HEK-293 hNET cells, 3H-NE (no asterisk); for IC50: read-out: NET pIC50 (converted)
T2 sequence (P23975 whole entry): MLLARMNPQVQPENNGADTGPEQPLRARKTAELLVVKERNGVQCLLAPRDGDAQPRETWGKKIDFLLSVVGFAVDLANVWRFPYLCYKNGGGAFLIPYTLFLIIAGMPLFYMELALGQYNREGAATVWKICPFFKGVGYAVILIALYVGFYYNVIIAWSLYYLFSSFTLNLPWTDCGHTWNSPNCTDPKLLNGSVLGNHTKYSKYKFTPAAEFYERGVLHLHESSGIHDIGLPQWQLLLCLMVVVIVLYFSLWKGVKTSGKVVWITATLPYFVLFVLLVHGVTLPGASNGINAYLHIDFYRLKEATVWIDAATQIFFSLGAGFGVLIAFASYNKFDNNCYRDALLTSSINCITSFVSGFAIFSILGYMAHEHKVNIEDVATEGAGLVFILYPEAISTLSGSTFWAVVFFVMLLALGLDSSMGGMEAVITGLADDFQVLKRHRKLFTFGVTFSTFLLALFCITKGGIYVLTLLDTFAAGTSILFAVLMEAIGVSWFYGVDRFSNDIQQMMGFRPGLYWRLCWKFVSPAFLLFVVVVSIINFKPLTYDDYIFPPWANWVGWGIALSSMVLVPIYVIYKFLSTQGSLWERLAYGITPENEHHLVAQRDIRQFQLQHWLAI
Experimental: as §1, §2, §3, §4

NET [3] = target: T2, NET; experiment: hNET membrane radioligand binding assay (3H-nisoxetine); parameters: expressed in transfected cells; host or cells: HEK-293; details: hNET membranes (HEK-293), 1.0 nM 3H-nisoxetine; for Ki: read-out: NET pKi (converted)
Experimental: (§5) Membrane radioligand binding assays were used to measure inhibition of labeled ligand (^3H-citalopram or ^3H-nisoxetine or ^3H-WIN35428) binding to membranes prepared from cells expressing the respective human recombinant transporter (hSERT or hNET or hDAT) in order to determine the pKi values of test compounds at the transporters.
(§6) Recombinant human embryonic kidney (HEK-293) derived cell lines stably transfected with hSERT or hNET, respectively, were grown in DMEM medium supplemented with 10% dialyzed FBS (for hSERT) or FBS (for hNET), 100 μg/ml penicillin, 100 μg/ml streptomycin, 2 mM L-glutamine and 250 μg/ml of the aminoglycoside antibiotic G418, in a 5% CO2 humidified incubator at 37° C. When cultures reached 80% confluence, the cells were washed thoroughly in PBS (without Ca^2+ and Mg^2+) and lifted with 5 mM EDTA in PBS. Cells were pelleted by centrifugation, resuspended in lysis buffer (10 mM Tris-HCl, pH7.5 containing 1 mM EDTA), homogenized, pelleted by centrifugation, then resuspended in 50 mM Tris-HCl, pH 7.5 and 10% sucrose at 4° C. Protein concentration of the membrane suspension was determined using a Bio-Rad Bradford Protein Assay kit. Membranes were snap frozen and stored at −80° C. Chinese hamster ovary membranes expressing hDAT (CHO-DAT) were purchased from PerkinElmer and stored at −80° C.
(§7) Binding assays were performed in a 96-well assay plate in a total volume of 200 μl assay buffer (50 mM Tris-HCl, 120 mM NaCl, 5 mM KCl, pH 7.4) with 0.5, 1, and 3 μg membrane protein, for SERT, NET and DAT, respectively.
(§8) Stock solutions (10 mM in DMSO) of test compound were prepared and serial dilutions made using Dilution Buffer (50 mM Tris-HCl, 120 mM NaCl, 5 mM KCl, pH 7.4, 0.1% BSA, 400 μM ascorbic acid). Non-specific radioligand binding was determined in the presence of 1 μM duloxetine, 1 μM desipramine or 10 μM GBR12909 (each in Dilution Buffer) for the hSERT, hNET or hDAT assays, respectively.
(§9) Following a 60 minute incubation at 22° C. (or a period sufficient to reach equilibrium), the membranes were harvested by rapid filtration over a 96-well UniFilter GF/B plate, pretreated with 0.3% polyethyleneimine, and washed 6 times with […] (50 mM Tris-HCl, 0.9% NaCl, pH 7.5 at 4° C.). Plates were dried overnight at room temperature, approximately […] of MicroScint™-20 (Perkin Elmer) added and bound radioactivity quantitated via liquid scintillation spectroscopy. Inhibition curves and saturation isotherms were analyzed using GraphPad Prism Software package (GraphPad Software, Inc., San Diego, Calif.). IC50 values were generated from concentration response curves using the Sigmoidal Dose Response (variable slope) algorithm in Prism GraphPad. Kd and Bmax values for the radioligand were generated from saturation isotherms using the Saturation Binding Global Fit algorithm in Prism GraphPad. pKi (negative decadic logarithm of Ki) values for test compounds were calculated from the best-fit IC50 values, and the Kd value of the radioligand, using the Cheng-Prusoff equation (Cheng & Prusoff (1973) Biochem. Pharmacol. 22(23):3099-3108): Ki=IC50/(1+[L]/Kd), where [L]=concentration radioligand.

SERT [4] = target: T1, SERT; experiment: hSERT membrane radioligand binding assay (3H-citalopram); parameters: expressed in transfected cells; host or cells: HEK-293; details: hSERT membranes (HEK-293), 1.0 nM 3H-citalopram; for Ki: read-out: SERT pKi (converted)
Experimental: as §5, §6, §7, §8, §9
Target sequence in this assay (P31645 whole entry): as the sequence (P31645 whole entry) above

NET [5] = target: T2, NET; experiment: fluorescence-based norepinephrine uptake assay (Tsuruda et al. 2010); assay type: cell-based; details: norepinephrine reuptake inhibition, fluorescence-based assay (data indicated by an asterisk); read-out: NET pIC50 (converted)
SERT [6] = target: T1, SERT; experiment: fluorescence-based serotonin uptake assay (Tsuruda et al. 2010); assay type: cell-based; details: serotonin reuptake inhibition, fluorescence-based assay (data indicated by an asterisk); read-out: SERT pIC50 (converted)
Target sequence in this assay (P31645 whole entry, species assumed): as the sequence (P31645 whole entry) above

| IC50 (SERT [1]) [nM] | IC50 (NET [2]) [nM] | Ki (NET [3]) [nM] | Ki (SERT [4]) [nM] | IC50 (NET [5]) [nM] | IC50 (SERT [6]) [nM] | SMILES | NET pIC50 (NET [2]) | NET pKi (NET [3]) | SERT pKi (SERT [4]) | SERT pIC50 (SERT [1]) |
| --- | --- | --- | --- | --- | --- | --- | --- | --- | --- | --- |
| ≤ 10 | ≤ 10 | ≤ 10 | ≤ 10 | – | – | CCOC[C@@H](Oc1cccc(Cl)c1Cl)[C@H]1CCNC1 [Example 7-8, (S)-3-[(S)-1-(2,3-Dichlorophenoxy)-2-ethoxyethyl]pyrrolidine] | – | – | – | – |
| ≤ 10 | ≤ 10 | ≤ 10 | ≤ 10 | – | – | COC[C@H](Oc1ccc(Cl)cc1Cl)[C@H]1CCNC1 [Example 3, (S)-3-[(R)-1-(2,4-Dichlorophenoxy)-2-methoxyethyl]pyrrolidine] | – | – | – | – |
| ≤ 100 | ≤ 100 | ≤ 100 | ≤ 10 | – | – | Clc1ccccc1O[C@H](C1CCOCC1)[C@H]1CCNC1 [Example 13-4, (S)-3-[(R)-(2-Chlorophenoxy)(tetrahydropyran-4-yl)methyl]pyrrolidine] | – | – | – | – |
| ≤ 100 | ≤ 10 | ≤ 10 | ≤ 100 | – | – | Clc1ccc(O[C@@H](C2CCOCC2)[C@H]2CCNC2)c(Cl)c1 [Example 13-22, (S)-3-[(S)-(2,4-Dichlorophenoxy)(tetrahydropyran-4-yl)methyl]pyrrolidine] | – | – | – | – |
| – | – | – | – | – | – | COCC(Oc1cccc(Cl)c1Cl)C1CCNC1 (centres unmarked) [Example 4-6, 3-[1-(2,3-Dichlorophenoxy)-2-methoxyethyl]pyrrolidine] | ≧8.0 | ≧8.0 | ≧8.0 | – |
| ≤ 100 | ≤ 10 | ≤ 10 | ≤ 10 | – | – | COC[C@@H](Oc1cccc(Cl)c1C(F)(F)F)[C@H]1CCNC1 [Example 4-20, (S)-3-[(S)-1-(3-Chloro-2-trifluoromethylphenoxy)-2-methoxyethyl]pyrrolidine] | – | – | – | – |
| ≤ 10 | ≤ 10 | ≤ 10 | ≤ 10 | – | – | Clc1cccc(O[C@H](C2CCOCC2)[C@H]2CCNC2)c1Cl [Example 13-12, (S)-3-[(R)-(2,3-Dichlorophenoxy)(tetrahydropyran-4-yl)methyl]pyrrolidine] | – | – | – | – |
| ≤ 10 | ≤ 10 | ≤ 10 | ≤ 10 | – | – | Clc1ccc(O[C@H](C2CCOCC2)[C@@H]2CCNC2)cc1 [Example 13-9, (R)-3-[(R)-(4-Chlorophenoxy)(tetrahydropyran-4-yl)methyl]pyrrolidine] | – | – | – | – |
| – | – | – | – | – | – | COC[C@H](Oc1cccc(Cl)c1Cl)[C@H]1CCNC1 [Example 4-10] | ≧8.0 | ≧8.0 | ≧8.0 | ≧8.0 |
| – | – | ≤ 100 | ≤ 10 | ≤ 100 | ≤ 100 | CC(C)OC[C@H](Oc1cccc(Cl)c1Cl)[C@@H]1CCNC1 [Example 9-6, (R)-3-[(R)-1-(2,3-Dichlorophenoxy)-2-isopropoxyethyl]pyrrolidine] | – | – | – | – |
| – | – | ≤ 100 | ≤ 10 | ≤ 100 | ≤ 10 | Cc1c(Cl)cccc1O[C@@H](COC(C)C)[C@@H]1CCNC1 [Example 9-14, (R)-3-[(R)-1-(3-Chloro-2-methylphenoxy)-2-isopropoxyethyl]pyrrolidine] | – | – | – | – |
| – | – | ≤ 100 | ≤ 10 | ≤ 100 | ≤ 100 | CC(C)OC[C@H](Oc1cccc(Cl)c1C(F)(F)F)[C@@H]1CCNC1 [Example 9-18, (R)-3-[(R)-1-(3-Chloro-2-trifluoromethylphenoxy)-2-isopropoxyethyl]pyrrolidine] | – | – | – | – |
| ≤ 100 | ≤ 100 | – | – | – | – | OC[C@@H](Oc1ccc(Cl)cc1Cl)[C@@H]1CCNC1 (stereo in doubt) [Example 2-1, (R)-2-(2,4-Dichlorophenoxy)-2-(S)-pyrrolidin-3-yl-ethanol] | – | – | – | – |
| – | – | ≤ 10000 | ≤ 100 | ≤ 1000 | ≤ 100 | CC(C)OC[C@H](Oc1cccc(C(F)(F)F)c1)[C@@H]1CCNC1 [Example 9-2, (R)-3-[(R)-2-Isopropoxy-1-(3-trifluoromethylphenoxy)ethyl]pyrrolidine] | – | – | – | – |
| – | – | ≤ 1000 | ≤ 1000 | ≤ 100 | ≤ 1000 | CC(C)OC[C@H](Oc1c(Cl)cccc1Cl)[C@@H]1CCNC1 [Example 9-27, (R)-3-[(R)-1-(2,6-Dichlorophenoxy)-2-isopropoxyethyl]pyrrolidine] | – | – | – | – |
| ≤ 10 | ≤ 10 | – | – | – | – | CCOC[C@H](Oc1cccc2ccccc12)[C@H]1CCNC1 [Example 11, (S)-3-[(R)-2-Ethoxy-1-(naphthalen-1-yloxy)ethyl]pyrrolidine] | – | – | – | – |
